In patent US20250051327A1, “MALT-1 MODULATORS” (EXSCIENTIA AI LIMITED, priority 2020, published 2025):

Legend:
[1] = target: Recombinant human MALT-1 (amino acids 340-824) (Homo sapiens (Human), UniProt Q9UDY8); assay: MALT-1 inhibition assay (fluorogenic substrate Ac-LRSR-Rh110-DP); format: biochemical; conditions: recombinant human MALT-1, substrate Ac-LRSR-Rh110-DP
Method in brief: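 Reactions were started with fluorogenic substrate Ac-LRSR-Rh110-DP (10 μM final) against 3 nM enzyme and kept dark at 25° C for 60 minutes. IC50 values came from 4-parameter logistic fits of percent inhibition calculated from relative fluorescence units.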

[2] = tested on: IL-2 secretion by human effector memory T cells (TEM); assay: Effector memory T cells IL-2 release assay; format: cell-based; conditions: T-cell; human CD4+ effector memory T cells, CD3/CD28 bead stimulation, 24 h; read-out: CD4TC IL2 IC50
Method in brief: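 Human CD4+ effector memory T cells from healthy-donor buffy coats were stimulated with anti-CD3/CD28 Dynabeads and exposed to 10 semi-log compound doses (0.1% DMSO) for 24 h at 37 °C. Supernatant IL-2 was measured by HTRF, and IC50 came from a 4-parameter logistic fit to maximal IL-2. Viability was checked by flow cytometry.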

Chain of Recombinant human MALT-1 (amino acids 340-824) (Q9UDY8 340-824): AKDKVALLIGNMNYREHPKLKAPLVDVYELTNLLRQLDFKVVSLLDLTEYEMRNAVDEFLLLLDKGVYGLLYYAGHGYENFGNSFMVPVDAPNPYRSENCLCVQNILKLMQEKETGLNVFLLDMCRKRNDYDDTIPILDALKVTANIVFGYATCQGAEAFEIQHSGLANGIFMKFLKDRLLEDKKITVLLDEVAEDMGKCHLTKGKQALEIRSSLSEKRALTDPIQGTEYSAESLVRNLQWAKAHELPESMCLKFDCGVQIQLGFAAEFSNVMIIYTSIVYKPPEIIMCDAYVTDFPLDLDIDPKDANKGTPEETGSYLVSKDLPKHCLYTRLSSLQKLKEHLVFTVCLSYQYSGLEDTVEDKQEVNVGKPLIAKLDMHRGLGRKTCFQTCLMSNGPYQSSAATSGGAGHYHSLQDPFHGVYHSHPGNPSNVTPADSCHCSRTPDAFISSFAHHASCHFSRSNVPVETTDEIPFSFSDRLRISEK

Question: How did the IC50 [1] turn out when CN(C(=O)[C@@H]1CCC(=O)N1)[C@@H](c1ccc(N2CCCc3c2cnc2cc(Cl)nn32)cc1)C(F)(F)F (relative stereo) [CPD0073566, (2rel-S)-N-[(1S)-1-(4-{4-chloro-2,3,7,10-tetraazatricyclo[7.4.0.0^2,6]trideca-1(9),3,5,7-tetraen-10-yl}phenyl)-2,2,2-trifluoroethyl]-N-methyl-5-oxopyrrolidine-2-carboxamide] was run?
Answer: The IC50 was 76 nM.

Question: And the IC50 [2]?
Answer: Its IC50 is 241 nM.

Question: CN(C(=O)[C@H]1CCC(=O)N1)[C@@H](c1ccc(N2CCCc3c2cnc2cc(Cl)nn32)cc1)C(F)(F)F (relative stereo) [CPD0073567, (2rel-R)-N-[(1S)-1-(4-{4-chloro-2,3,7,10-tetraazatricyclo[7.4.0.0^2,6]trideca-1(9),3,5,7-tetraen-10-yl}phenyl)-2,2,2-trifluoroethyl]-N-methyl-5-oxopyrrolidine-2-carboxamide] was tested. Which IC50 [1] did it give?
Answer: Its IC50 is 35 nM.

Question: What about the IC50 [2] of the same compound?
Answer: Its IC50 is 119 nM.

Question: Which results are given for CN(C(=O)[C@@H]1CCC(=O)NC1)[C@@H](c1ccc(N2CCCc3c2cnc2cc(Cl)nn32)cc1)C(F)(F)F (relative stereo) [CPD0073568, (3rel-R)-N-[(1S)-1-(4-{4-chloro-2,3,7,10-tetraazatricyclo[7.4.0.0^2,6]trideca-1(9),3,5,7-tetraen-10-yl}phenyl)-2,2,2-trifluoroethyl]-N-methyl-6-oxopiperidine-3-carboxamide]?
Answer: IC50 [1]: 38 nM; IC50 [2]: 131 nM

Question: What does the source list for CN(C(=O)[C@H]1CCC(=O)NC1)[C@@H](c1ccc(N2CCCc3c2cnc2cc(Cl)nn32)cc1)C(F)(F)F (relative stereo) [CPD0073569, (3rel-S)-N-[(1S)-1-(4-{4-chloro-2,3,7,10-tetraazatricyclo[7.4.0.0^2,6]trideca-1(9),3,5,7-tetraen-10-yl}phenyl)-2,2,2-trifluoroethyl]-N-methyl-6-oxopiperidine-3-carboxamide]?
Answer: IC50 [1]: 47 nM; IC50 [2]: 140 nM

Question: For CN1C(=O)OC[C@@H]1C(=O)N(C)[C@@H](c1ccc(N2CCCc3c2cnc2cc(Cl)nn32)cc1)C(F)(F)F (relative stereo) [CPD0073570, (4rel-R)-N-[(1S)-1-(4-{4-chloro-2,3,7,10-tetraazatricyclo[7.4.0.0^2,6]trideca-1(9),3,5,7-tetraen-10-yl}phenyl)-2,2,2-trifluoroethyl]-N,3-dimethyl-2-oxo-1,3-oxazolidine-4-carboxamide], which IC50 [1] is on record?
Answer: Its IC50 is 62 nM.

Question: And the IC50 [2]?
Answer: Its IC50 is 216 nM.

Question: Which IC50 [1] does the source give for CN(C(=O)[C@@H]1COC(=O)N1C)[C@@H](c1ccc(N2CCCc3c2cnc2cc(Cl)nn32)cc1)C(F)(F)F (relative stereo) [CPD0073571, (4rel-S)-N-[(1S)-1-(4-{4-chloro-2,3,7,10-tetraazatricyclo[7.4.0.0^2,6]trideca-1(9),3,5,7-tetraen-10-yl}phenyl)-2,2,2-trifluoroethyl]-N,3-dimethyl-2-oxo-1,3-oxazolidine-4-carboxamide] here?
Answer: The IC50 was 52 nM.

Question: And the IC50 [2]?
Answer: The IC50 was 153 nM.

Question: Which results are given for CN(C(=O)[C@@H]1CC12CCS(=O)(=O)CC2)[C@@H](c1ccc(N2CCCc3c2cnc2cc(Cl)nn32)cc1)C(F)(F)F (relative stereo) [CPD0073921, (1rel-R)-N-[(1S)-1-(4-{4-chloro-2,3,7,10-tetraazatricyclo[7.4.0.0^2,6]trideca-1(9),3,5,7-tetraen-10-yl}phenyl)-2,2,2-trifluoroethyl]-N-methyl-6,6-dioxo-6λ^6-thiaspiro[2.5]octane-1-carboxamide]?
Answer: IC50 [1]: 109 nM; IC50 [2]: 186 nM

Question: CN(C(=O)[C@H]1CC12CCS(=O)(=O)CC2)[C@@H](c1ccc(N2CCCc3c2cnc2cc(Cl)nn32)cc1)C(F)(F)F (relative stereo) [CPD0073922, (1rel-S)-N-[(1S)-1-(4-{4-chloro-2,3,7,10-tetraazatricyclo[7.4.0.0^2,6]trideca-1(9),3,5,7-tetraen-10-yl}phenyl)-2,2,2-trifluoroethyl]-N-methyl-6,6-dioxo-6λ^6-thiaspiro[2.5]octane-1-carboxamide] was tested. Which IC50 [1] did it give?
Answer: The IC50 was 173 nM.

Question: And the IC50 [2]?
Answer: Its IC50 is 994 nM.

Question: For CN(C(=O)[C@@H]1CS(=O)(=O)CC12CC2)[C@@H](c1ccc(N2CCCc3c2cnc2cc(Cl)nn32)cc1)C(F)(F)F (relative stereo) [CPD0073968, (7rel-R)-N-[(1S)-1-(4-{4-chloro-2,3,7,10-tetraazatricyclo[7.4.0.0^2,6]trideca-1(9),3,5,7-tetraen-10-yl}phenyl)-2,2,2-trifluoroethyl]-N-methyl-5,5-dioxo-5λ^6-thiaspiro[2.4]heptane-7-carboxamide], which IC50 [1] is on record?
Answer: Its IC50 is 100 nM.

Question: What about the IC50 [2] of the same compound?
Answer: The IC50 was 199 nM.

Question: For CN(C(=O)[C@@H](O)C1CCS(=O)(=O)CC1)[C@@H](c1ccc(N2CCCc3c2cnc2cc(Cl)nn32)cc1)C(F)(F)F (relative stereo) [CPD0073973, (2rel-S)—N-[(1S)-1-(4-{4-chloro-2,3,7,10-tetraazatricyclo[7.4.0.0^2,6]trideca-1(9),3,5,7-tetraen-10-yl}phenyl)-2,2,2-trifluoroethyl]-2-(1,1-dioxo-1λ^e-thian-4-yl)-2-hydroxy-N-methylacetamide], which IC50 [1] is on record?
Answer: Its IC50 is 57 nM.

Question: What about the IC50 [2] of the same compound?
Answer: The IC50 was 149 nM.

Question: For CN(C(=O)[C@@H]1CCN(C(=O)CO)C1)[C@@H](c1ccc(N2CCCc3c2cnc2cc(Cl)nn32)cc1)C(F)(F)F (relative stereo) [CPD0073976, (3 rel-R)—N-[(1S)-1-(4-{4-chloro-2,3,7,10-tetraazatricyclo[7.4.0.0^2,6]trideca-1(9),3,5,7-tetraen-10-yl}phenyl)-2,2,2-trifluoroethyl]-1-(2-hydroxyacetyl)-N-methylpyrrolidine-3-carboxamide], which IC50 [1] is on record?
Answer: Its IC50 is 57 nM.

Question: And the IC50 [2]?
Answer: Its IC50 is 149 nM.

Question: How did the IC50 [1] turn out when CN(C(=O)[C@H]1CCN(C(=O)CO)C1)[C@@H](c1ccc(N2CCCc3c2cnc2cc(Cl)nn32)cc1)C(F)(F)F (relative stereo) [CPD0073977, (3rel-S)—N-[(1S)-1-(4-{4-chloro-2,3,7,10-tetraazatricyclo[7.4.0.0^2,6]trideca-1(9),3,5,7-tetraen-10-yl}phenyl)-2,2,2-trifluoroethyl]-1-(2-hydroxyacetyl)-N-methylpyrrolidine-3-carboxamide] was run?
Answer: Its IC50 is 39 nM.

Question: And the IC50 [2]?
Answer: Its IC50 is 115 nM.

Question: For C[C@@H]1CCN(c2ccc([C@H](N(C)C(=O)[C@H]3CCC(=O)NC3)C(F)(F)F)cc2)c2cnc3cc(Cl)nn3c21 (relative stereo) [CPD0074549, (3rel-S)-N-[(1S)-1-[4-[(13rel-R)-4-chloro-13-methyl-2,3,7,10-tetrazatricyclo[7.4.0.0^2,6]trideca-1(9),3,5,7-tetraen-10-yl]phenyl]-2,2,2-trifluoro-ethyl]-N-methyl-6-oxo-piperidine-3-carboxamide], which IC50 [1] is on record?
Answer: Its IC50 is 37 nM.

Question: And the IC50 [2]?
Answer: The IC50 was 142 nM.

Question: With C[C@@H]1CCN(c2ccc([C@H](N(C)C(=O)[C@H]3CC[S@](=N)(=O)CC3)C(F)(F)F)cc2)c2cnc3cc(F)nn3c21 (relative stereo) [CPD0074555, (1rel s, 4rel s)1-imino-N-methyl-1-oxo-N-[(1S)-2,2,2-trifluoro-1-[4-[(13 rel R)-4-fluoro-13-methyl-2,3,7,10-tetrazatricyclo[7.4.0.0^2,6]trideca-1(9),3,5,7-tetraen-10-yl]phenyl]ethyl]thiane-4-carboxamide] as the compound, how does the IC50 [1] read?
Answer: Its IC50 is 35 nM.

Question: And the IC50 [2]?
Answer: Its IC50 is 101 nM.
